We go through 29 compounds from patent US8877707B2, “Inhibitors of HCV NS5A” (Presidio Pharmaceuticals, Inc., priority 2010, dated 2014).

In this experiment the test system is HCV genotype 1b replicon in Huh 7 cells. Nature of the experiment: HCV replicon assay (1b_Huh-Luc/Neo-ET cell line, luciferase readout). The conditions noted are these: Hepatitis C virus; Table 1; genotype 1b replicon, Huh 7 cells, 72 h, luciferase; read-out: Inhibition of HCV genotype 1b. The experiment is classed as cell-based. As to the method: Biological activity of the compounds of the invention was determined using an HCV replicon assay. The 1b_Huh-Luc/Neo-ET cell line persistently expressing a bicistronic genotype 1b replicon in Huh 7 cells was obtained from ReBLikon GMBH. This cell line was used to test compound inhibition using luciferase enzyme activity readout as a measurement of compound inhibition of replicon levels.
On Day 1 (the day after plating), each compound is added in triplicate to the cells. Plates incubated for 72 h prior to running the luciferase assay. Enzyme activity was measured using a Bright-Glo Kit (cat. number E2620) manufactured by Promega Corporation. The following equation was used to generate a percent control value for each compound. % Control=(Average Compound Value/Average Control)*100
The EC50 value was determined using GraphPad Prism and the following equation: Y=Bottom+(Top−Bottom)/(1+10^((Log IC50−X)*HillSlope))
EC50 values of compounds are repeated several times in the replicon assay.

Turning to `COC(=O)N[C@H](C(=O)N1CCC[C@H]1c1ncc(-c2ccc(-c3ccc4cc(-c5c[nH]c([C@@H]6CCCN6C(=O)[C@H](NC(=O)OC)c6ccccc6)n5)cnc4c3)cc2)[nH]1)C(C)C` [compound 45], the EC50 was < 1 nM. Then `COC(=O)N[C@H](C(=O)N1CCC[C@H]1c1nc(-c2ccc3cc(-c4ccc(-c5cnc([C@@H]6CCCN6C(=O)[C@@H](NC(=O)OC)C6CCOCC6)[nH]5)cc4)ccc3c2)c[nH]1)C(C)C` [compound 46], with < 1 nM. On to `COC(=O)N[C@H](C(=O)N1CCC[C@H]1c1ncc(-c2ccc(-c3ccc4cc(-c5c[nH]c([C@@H]6CCCN6C(=O)[C@@H](NC(=O)OC)C6CCOCC6)n5)ccc4c3)cc2)[nH]1)C(C)C` [compound 47], for which the EC50 is < 1 nM. For `COC(=O)N[C@H](C(=O)N1CCC[C@H]1c1ncc(-c2ccc(-c3ccc4cc(-c5c[nH]c([C@@H]6CCCN6C(=O)[C@H](NC(=O)OC)c6ccccc6)n5)ccc4c3)nc2)[nH]1)C(C)C` [compound 48], the EC50 is < 1 nM. For `COC(=O)N[C@H](C(=O)N1CCC[C@H]1c1nc(-c2cnc3cc(-c4ccc(-c5cnc([C@@H]6CCCN6C(=O)[C@@H](NC(=O)OC)C6CCOCC6)[nH]5)cc4)ccc3c2)c[nH]1)C(C)C` [compound 49], the EC50 is < 1 nM. Then `COC(=O)N[C@H](C(=O)N1CCC[C@H]1c1ncc(-c2ccc(-c3ccc4cc(-c5c[nH]c([C@@H]6CCCN6C(=O)[C@@H](NC(=O)OC)C6CCOCC6)n5)cnc4c3)cc2)[nH]1)C(C)C` [compound 50], with < 1 nM. Take `COC(=O)N[C@H](C(=O)N1CCC[C@H]1c1nc(-c2ccc3cc(-c4ccc(-c5cnc([C@@H]6CCCN6C(=O)[C@@H](NC(=O)OC)C6CCOCC6)[nH]5)cn4)ccc3c2)c[nH]1)C(C)C` [compound 51]: the EC50 was < 1 nM.

In the case of `COC(=O)N[C@H](C(=O)N1CCC[C@H]1c1ncc(-c2ccc(-c3ccc4cc(-c5c[nH]c([C@@H]6CCCN6C(=O)[C@@H](NC(=O)OC)C6CCOCC6)n5)ccc4c3)nc2)[nH]1)C(C)C` [compound 52], the EC50 was < 1 nM. Turning to `COC(=O)N[C@H](C(=O)N1CCC[C@H]1c1nc(-c2ccc3nc(-c4ccc(-c5cnc([C@@H]6CCCN6C(=O)[C@@H](NC(=O)OC)C(C)C)[nH]5)nc4)ccc3c2)c[nH]1)C(C)C` [compound 53], the EC50 was < 1 nM. Then `COC(=O)N[C@@H](C(=O)N1CCC[C@H]1c1nc(-c2ccc3nc(-c4ccc(-c5cnc([C@@H]6CCCN6C(=O)[C@H](NC(=O)OC)c6ccccc6)[nH]5)nc4)ccc3c2)c[nH]1)c1ccccc1` [compound 54], with < 1 nM. Then `COC(=O)N[C@H](C(=O)N1CCC[C@H]1c1nc(-c2ccc3cc(-c4ccc(-c5cnc([C@@H]6CCCN6C(=O)[C@H](NC(=O)OC)c6ccccc6)[nH]5)cn4)ccc3c2)c[nH]1)C(C)C` [compound 56], with < 1 nM; and `COC(=O)N[C@H](C(=O)N1CCC[C@H]1c1nc(-c2cnc3cc(-c4ccc(-c5cnc([C@@H]6CCCN6C(=O)[C@@H](NC(=O)OC)C(C)C)[nH]5)cc4F)ccc3c2)c[nH]1)C(C)C` [compound 57], with < 1 nM; and `COC(=O)N[C@H](C(=O)N1CCC[C@H]1c1ncc(-c2ccc(-c3ccc4cc(-c5c[nH]c([C@@H]6CCCN6C(=O)[C@H](NC(=O)OC)c6ccccc6)n5)cnc4c3)c(F)c2)[nH]1)C(C)C` [compound 58], with < 1 nM. Then `COC(=O)N[C@H](C(=O)N1CCC[C@H]1c1ncc(-c2ccc(-c3ccc4cc(-c5c[nH]c([C@@H]6CCCN6C(=O)[C@@H](NC(=O)OC)C6CCOCC6)n5)cnc4c3)c(F)c2)[nH]1)C(C)C` [compound 59], with < 1 nM; and `COC(=O)N[C@H](C(=O)N1CCC[C@H]1c1ncc(-c2ccc(-c3ccc4cc(-c5c[nH]c([C@@H]6CCCN6C(=O)[C@H](NC(=O)OC)c6ccccc6)n5)cnc4c3)nc2)[nH]1)C(C)C` [compound 60], with < 1 nM. Turning to `COC(=O)N[C@H](C(=O)N1CCC[C@H]1c1ncc(-c2ccc(-c3ccc4cc(-c5c[nH]c([C@@H]6CCCN6C(=O)[C@@H](NC(=O)OC)C6CCOCC6)n5)cnc4c3)nc2)[nH]1)C(C)C` [compound 61], the EC50 was < 1 nM. For the compound `COC(=O)N[C@H](C(=O)N1CCC[C@H]1c1nc(-c2cnc3cc(-c4ccc(-c5cnc([C@@H]6CCCN6C(=O)[C@@H](NC(=O)OC)C6CCOCC6)[nH]5)cn4)ccc3c2)c[nH]1)C(C)C` [compound 62], the EC50 is < 1 nM. Then `COC(=O)N[C@H](C(=O)N1CCC[C@H]1c1nc(-c2ccc3cc(-c4ccc(-c5cnc([C@@H]6CCCN6C(=O)[C@H](NC(=O)OC)c6ccccc6)[nH]5)nc4)ccc3c2)c[nH]1)C(C)C` [compound 63], with < 1 nM; and `COC(=O)N[C@H](C(=O)N1CCC[C@H]1c1nc(-c2ccc3cc(-c4ccc(-c5cnc([C@@H]6CCCN6C(=O)[C@H](NC(=O)OC)c6ccccc6)[nH]5)cc4F)ccc3c2)c[nH]1)C(C)C` [compound 64], with < 1 nM; and `COC(=O)N[C@H](C(=O)N1CCC[C@H]1c1nc(-c2ccc3cc(-c4ccc(-c5cnc([C@@H]6CCCN6C(=O)[C@@H](NC(=O)OC)C6CCOCC6)[nH]5)cc4F)ccc3c2)c[nH]1)C(C)C` [compound 65], with < 1 nM. In the case of `COC(=O)N[C@H](C(=O)N1CCC[C@H]1c1nc(-c2ccc3cc(-c4ccc(-c5cnc([C@@H]6CCCN6C(=O)[C@@H](NC(=O)OC)C(C)C)[nH]5)cc4F)ccc3c2)c[nH]1)C(C)C` [compound 66], the EC50 was < 1 nM. Then `COC(=O)N[C@H](C(=O)N1CCC[C@H]1c1ncc(-c2ccc(-c3ccc4cc(-c5c[nH]c([C@@H]6CCCN6C(=O)[C@H](NC(=O)OC)c6ccccc6)n5)ccc4c3)c(F)c2)[nH]1)C(C)C` [compound 67], with < 1 nM; and `COC(=O)N[C@H](C(=O)N1CCC[C@H]1c1ncc(-c2ccc(-c3ccc4cc(-c5c[nH]c([C@@H]6CCCN6C(=O)[C@@H](NC(=O)OC)C6CCOCC6)n5)ccc4c3)c(F)c2)[nH]1)C(C)C` [compound 68], with < 1 nM. Then `COC(=O)N[C@H](C(=O)N1CCC[C@H]1c1nc(-c2ccc3cc(-c4ccc(-c5cnc([C@@H]6CCCN6C(=O)[C@H](NC(=O)OC)c6ccccc6)[nH]5)cc4C)ccc3c2)c[nH]1)C(C)C` [compound 69], with < 1 nM; and `COC(=O)N[C@H](C(=O)N1CCC[C@H]1c1ncc(-c2ccc(-c3ccc4cc(-c5c[nH]c([C@@H]6CCCN6C(=O)[C@H](NC(=O)OC(C)(C)C)c6ccccc6)n5)ccc4n3)cn2)[nH]1)C(C)C` [compound 70], with < 1 nM; and `COC(=O)N[C@H](C(=O)N1CCC[C@H]1c1nc(-c2cnc3cc(-c4ccc(-c5cnc([C@@H]6CCCN6C(=O)[C@H](NC(=O)OC)c6ccccc6)[nH]5)cc4)ccc3c2)c[nH]1)C1CCOCC1` [compound 71], with < 1 nM. Then `COC(=O)N[C@H](C(=O)N1CCC[C@H]1c1nc(-c2cnc3cc(-c4ccc(-c5cnc([C@@H]6CCCN6C(=O)[C@H](NC(=O)OC(C)(C)C)c6ccccc6)[nH]5)cc4)ccc3c2)c[nH]1)C1CCOCC1` [compound 72], with < 1 nM. For the compound `COC(=O)N[C@H](C(=O)N1CCC[C@H]1c1nc(-c2cnc3cc(-c4ccc(-c5cnc([C@@H]6CCCN6C(=O)[C@@H](NC(=O)OC)C6CCOCC6)[nH]5)cc4)ccc3c2)c[nH]1)C1CCOCC1` [compound 73], the EC50 was < 1 nM.

Regarding `COC(=O)N[C@H](C(=O)N1CCC[C@H]1c1nc(-c2cnc3cc(-c4ccc(-c5cnc([C@@H]6CCCN6C(=O)[C@@H](NC(=O)OC)C(C)C)[nH]5)cn4)ccc3c2)c[nH]1)C(C)C` [compound 74], the EC50 is < 1 nM.
